Structures are written as SMILES. *1 amine or outer side, *2 acyl side, *3 side chain or, on linkers, in order; H or OH if unused. Where a SMILES comes first, the peptide text is derived from it. [ ]: non-standard residue; d: D form. Phe(4-guanidino) = N=C(N)Nc1ccc(C[C@H](N)C(=O)O)cc1; X65 = O=C([C@H](CCCn1ccnc1[N+](=O)[O-])N[*:1])[*:2]; X72 = CC1(C)NC(=N)N(CCC[C@H](N[*:1])C(=O)[*:2])C1=O; Phe(4-Cl) = N[C@@H](Cc1ccc(Cl)cc1)C(=O)O; Lys(N3) = [N-]=[N+]=NCCCC[C@H](N)C(=O)O; Phe(4-NH2) = Nc1ccc(C[C@H](N)C(=O)O)cc1; Phe(4-F) = N[C@@H](Cc1ccc(F)cc1)C(=O)O; NHCH2CH2SCH2CO = O=C(CSCCN[*:1])[*:2]; X21 = O=C([C@@H]1C[C@H]1CN[*:1])[*:2]; X61 = O=C(C12COC(CN[*:1])(C1)C2)[*:2]; Phe(2-F) = N[C@@H](Cc1ccccc1F)C(=O)O; X70 = O=C(C1CC2(C1)CN([*:1])C2)[*:2]; NMe3Pal = CN[C@@H](Cc1cccnc1)C(=O)O; X1 = O=C(C12CC(CN[*:1])(C1)C2)[*:2]; NMeR = CN[C@@H](CCCNC(=N)N)C(=O)O; NMeF = CN[C@@H](Cc1ccccc1)C(=O)O; 3Pal = N[C@@H](Cc1cccnc1)C(=O)O; 4Pal = N[C@@H](Cc1ccncc1)C(=O)O; d3Pal = N[C@H](Cc1cccnc1)C(=O)O; X58 = O=C(C1CC(N[*:1])C1)[*:2]; X50 = CC(CCCC(=O)[*:2])N[*:1]; Cba = N[C@@H](CC1CCC1)C(=O)O; X64 = O=C(C#CCN[*:1])[*:2]; hSer = N[C@@H](CCO)C(=O)O; Nle = CCCC[C@H](N)C(=O)O; Nva = CCC[C@H](N)C(=O)O

By EC50 is commonly meant the concentration giving half of the maximal effect.

In the assay the target is KRAS-G12D protein (Homo sapiens, UniProt P01116, G12D). In words: SOS-mediated nucleotide exchange assay (BODIPY-GDP / Tb-streptavidin TR-FRET). The class given is biochemical. In general terms: Time-resolved FRET reads energy transfer from a long-lived donor to a nearby acceptor.
KRAS-G12D protein, sequence (P01116 1-188 isoform P01116-2 G12D): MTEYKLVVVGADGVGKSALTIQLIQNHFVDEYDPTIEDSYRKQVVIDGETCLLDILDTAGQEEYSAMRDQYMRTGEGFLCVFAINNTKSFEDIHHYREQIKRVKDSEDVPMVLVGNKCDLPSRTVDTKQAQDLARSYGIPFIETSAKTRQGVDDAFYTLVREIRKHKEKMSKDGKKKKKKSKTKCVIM
For `CCCC[C@@H]1NC(=O)[C@H](Cc2ccc(O)cc2)NC(=O)[C@H](CC(C)C)NC(=O)[C@H](Cc2ccc(OC)cc2)NC(=O)[C@H](CCCNC(=N)N)NC(=O)[C@H](Cc2ccccc2)NC(=O)CSCCNC(=O)[C@H](Cc2ccccc2)N(C)C1=O` [compound 72, cyclo(F-R-TyrOMe-L-Y-Nle-NMeF-Cysteamine-ClAc)], the concentration giving a half-maximal response (EC50) turned out to be 2.25 µM. This counts as single-digit micromolar.
As for `CCCC[C@@H]1NC(=O)[C@H](Cc2ccc(O)cc2)NC(=O)[C@H](CC(C)C)NC(=O)[C@H](Cc2ccc(O)cc2)NC(=O)[C@H](CCCNC(=N)N)NC(=O)[C@H](Cc2ccc(Cl)cc2)NC(=O)CSCCNC(=O)[C@H](Cc2ccccc2)N(C)C1=O` [compound 74, cyclo(-Phe4Cl-R-Y-L-Y-Nle-NMeF-Cysteamine-ClAc)] (cyclo(LY[Nle][NMeF][NHCH2CH2SCH2CO][Phe(4-Cl)]RY)), the concentration for a half-maximal effect (EC50) worked out at 7.07 µM.
With `CCCC[C@@H]1NC(=O)[C@H](Cc2ccc(O)cc2)NC(=O)[C@H](CC(C)C)NC(=O)[C@H](Cc2ccc(O)cc2)NC(=O)[C@H](CCCNC(=N)N)NC(=O)[C@H](Cc2ccc(F)cc2)NC(=O)CSCCNC(=O)[C@H](Cc2ccccc2)N(C)C1=O` [compound 75, cyclo(Phe4F-R-Y-L-Y-Nle-NMeF-Cysteamine-ClAc)] (cyclo(LY[Nle][NMeF][NHCH2CH2SCH2CO][Phe(4-F)]RY)), the response was half-maximal at 2.51 µM (EC50).
`CCCC[C@@H]1NC(=O)[C@H](Cc2ccc(O)cc2)NC(=O)[C@H](CCC)NC(=O)[C@H](Cc2ccc(O)cc2)NC(=O)[C@H](CCCNC(=N)N)NC(=O)[C@H](Cc2ccccc2)NC(=O)CSCCNC(=O)[C@H](Cc2ccccc2)N(C)C1=O` [compound 76, cyclo(F-R-Y-Nva-Y-Nle-NMeF-Cysteamine-ClAc)] (cyclo(FRY[Nva]Y[Nle][NMeF][NHCH2CH2SCH2CO])): the concentration giving a half-maximal response (EC50) turned out to be 5.31 µM.
Then `CCCC[C@@H]1NC(=O)[C@H](Cc2ccc(O)cc2)NC(=O)[C@H](CCOC)NC(=O)[C@H](Cc2ccc(O)cc2)NC(=O)[C@H](CCCNC(=N)N)NC(=O)[C@H](Cc2ccccc2)NC(=O)CSCCNC(=O)[C@H](Cc2ccccc2)N(C)C1=O` [compound 77, cyclo(F-R-Y-hSOMe-Y-Nle-NMeF-Cysteamine-ClAc)] (cyclo(FRY[hSer](Me)Y[Nle][NMeF][NHCH2CH2SCH2CO])), with 2.85 µM; and `CCCC[C@@H]1NC(=O)[C@H](Cc2ccc(O)cc2)NC(=O)[C@H](CC(C)C)NC(=O)[C@H](Cc2ccc(N)cc2)NC(=O)[C@H](CCCNC(=N)N)NC(=O)[C@H](Cc2ccccc2)NC(=O)CSCCNC(=O)[C@H](Cc2ccccc2)N(C)C1=O` [compound 79, cyclo(F-R~Phe4NH2-L-Y-Nle-NMeF-Cysteamine-ClAc)] (cyclo(FR[Phe(4-NH2)]LY[Nle][NMeF][NHCH2CH2SCH2CO])), with 2.36 µM; and `CCCC[C@@H]1NC(=O)[C@H](CCCNC(=N)N)NC(=O)[C@H](Cc2ccccc2)NC(=O)CSCCNC(=O)[C@H](Cc2ccccc2)N(C)C(=O)[C@H](CCCC)NC(=O)[C@H](Cc2ccc(O)cc2)NC(=O)[C@H](CC(C)C)NC1=O` [compound 81, cyclo(F-R-Nle-L-Y-Nle-NMeF-Cysteamine-ClAc)] (cyclo(FR[Nle]LY[Nle][NMeF][NHCH2CH2SCH2CO])), with 7.98 µM.
Then `CCC[C@@H]1NC(=O)[C@H](Cc2ccc(O)cc2)NC(=O)[C@H](CC(C)C)NC(=O)[C@H](Cc2ccc(O)cc2)NC(=O)[C@H](CCCNC(=N)N)NC(=O)[C@H](Cc2ccccc2)NC(=O)CSCCNC(=O)[C@H](Cc2ccccc2)N(C)C1=O` [compound 83, cyclo(F-R-Y-L-Y-Nva-NMeF-Cysteamine-ClAc)], with 6.35 µM; and `CCC[C@@H]1NC(=O)[C@H](Cc2ccc(OC)cc2)NC(=O)[C@H](CC(C)C)NC(=O)[C@H](Cc2cccnc2)NC(=O)[C@H](CCCNC(=N)N)NC(=O)[C@H](Cc2ccc(F)cc2)NC(=O)CSCCNC(=O)[C@H](Cc2ccccc2)N(C)C1=O` [compound 87, cyclo(Phe4F-R-3Pal-L-TyrOMe-Nva-NMeF-Cysteamine-ClAc)] (cyclo([3Pal]LY(Me)[Nva][NMeF][NHCH2CH2SCH2CO][Phe(4-F)]R)), with 1.6 µM; and `CCC[C@@H]1NC(=O)[C@H](Cc2ccc(OC)cc2)NC(=O)[C@H](CC(C)C)NC(=O)[C@H](Cc2ccncc2)NC(=O)[C@H](CCCNC(=N)N)NC(=O)[C@H](Cc2ccc(F)cc2)NC(=O)CSCCNC(=O)[C@H](Cc2ccccc2)N(C)C1=O` [compound 88, cyclo(Phe4F-R-4Pal-L-TyrOMe-Nva-NMeF-Cysteamine-ClAc)] (cyclo([4Pal]LY(Me)[Nva][NMeF][NHCH2CH2SCH2CO][Phe(4-F)]R)), with 3.01 µM.
As for `CCCC[C@@H]1NC(=O)[C@H](CCCCN=[N+]=[N-])NC(=O)[C@H](CCCNC(=N)N)NC(=O)[C@H](Cc2ccc(F)cc2)NC(=O)CSCCNC(=O)[C@H](Cc2ccccc2)N(C)C(=O)[C@H](CCCC)NC(=O)[C@H](Cc2ccc(O)cc2)NC1=O` [compound 89, cyclo(Phe4F-R-LysN3-Nle-Y-Nle-NMeF-Cysteamine-ClAc)] (cyclo([Lys(N3)][Nle]Y[Nle][NMeF][NHCH2CH2SCH2CO][Phe(4-F)]R)), the figure is 3.53 µM; as for `CCCC[C@@H]1NC(=O)[C@H](Cc2ccncc2)NC(=O)[C@H](CCCNC(=N)N)NC(=O)[C@H](Cc2ccc(F)cc2)NC(=O)CSCCNC(=O)[C@H](Cc2ccccc2)N(C)C(=O)[C@H](CCCC)NC(=O)[C@H](Cc2ccc(OC)cc2)NC1=O` [compound 90, cyclo(Phe4F-R-4Pal-Nle-TyrOMe-Nle-NMeF-Cysteamine-ClAc)] (cyclo([4Pal][Nle]Y(Me)[Nle][NMeF][NHCH2CH2SCH2CO][Phe(4-F)]R)), 0.432 µM.
Consider `CCCC[C@@H]1NC(=O)[C@H](Cc2ccc(NC(=N)N)cc2)NC(=O)[C@H](CCCNC(=N)N)NC(=O)[C@H](Cc2ccccc2)NC(=O)C2CC(C2)NC(=O)[C@H](Cc2ccccc2)N(C)C(=O)[C@H](CCCC)NC(=O)[C@H](Cc2ccc(OC)cc2)NC1=O` [compound 92, cyclo(F-R-Phe4Gn-Nle-TyrOMe-Nle-NMeF-acBu)] (cyclo(FR[Phe(4-guanidino)][Nle]Y(Me)[Nle][NMeF][X58])), for which the midpoint of the response, the EC50, lay at 0.0139 µM.
Then `CCCC[C@@H]1NC(=O)[C@H](Cc2ccc(NC(=N)N)cc2)NC(=O)[C@H](CCCNC(=N)N)NC(=O)[C@H](Cc2ccccc2)NC(=O)CCCC(C)NC(=O)[C@H](Cc2ccccc2)N(C)C(=O)[C@H](CCCC)NC(=O)[C@H](Cc2ccc(OC)cc2)NC1=O` (stereo partly shown) [compound 93, cyclo(F-R-Phe4Gn-Nle-TyrOMe-Nle-NMeF-SamHex)] (cyclo(FR[Phe(4-guanidino)][Nle]Y(Me)[Nle][NMeF][X50])), with 0.142 µM.
As for `CCCC[C@@H]1NC(=O)[C@H](Cc2cccnc2)NC(=O)[C@H](CCCNC(=N)N)N(C)C(=O)[C@H](Cc2ccccc2)NC(=O)[C@@H]2C[C@H]2CNC(=O)[C@H](Cc2ccccc2)N(C)C(=O)[C@H](CCCCN=[N+]=[N-])NC(=O)[C@H](Cc2ccc(OC)cc2)NC1=O` [compound 94, cyclo(F-NMeR-3Pal-Nle-TyrOMe-LysN3-NMeF-tamcPr)] (cyclo(F[NMeR][3Pal][Nle]Y(Me)[Lys(N3)][NMeF][X21])), the figure is 0.224 µM.
Then `CCCC[C@@H]1NC(=O)[C@H](Cc2ccc(OC)cc2)NC(=O)[C@H](CC2CCC2)NC(=O)[C@H](Cc2cccnc2)NC(=O)[C@H](CCCNC(=N)N)NC(=O)[C@H](Cc2ccccc2)NC(=O)C23CC(CNC(=O)[C@H](Cc4ccccc4)N(C)C1=O)(C2)C3` [compound 98, cyclo(F-R-3Pal-cBuA-TyrOMe-Nle-NMeF-amBCP)] (cyclo(FR[3Pal][Cba]Y(Me)[Nle][NMeF][X1])), with 0.00547 µM.
Consider `CCCC[C@@H]1NC(=O)[C@H](Cc2ccc(OC)cc2)NC(=O)[C@H](CC2CCC2)NC(=O)[C@H](Cc2cccnc2)NC(=O)[C@H](CCCNC(=N)N)NC(=O)[C@H](Cc2ccccc2)NC(=O)C2CC3(C2)CN(C3)C(=O)[C@H](Cc2ccccc2)N(C)C1=O` [compound 102, cyclo(F-R-3Pal-cBuA-TyrOMe-Nlc-NMeF-spiro44)] (cyclo(FR[3Pal][Cba]Y(Me)[Nle][NMeF][X70])), for which the EC50 is 7.34 µM.
As for `CCCC[C@@H]1NC(=O)[C@H](Cc2ccccc2F)NC(=O)[C@H](CC2CCC2)NC(=O)[C@@H](Cc2cccnc2)NC(=O)[C@H](CCCNC(=N)N)NC(=O)[C@H](Cc2ccccc2)NC(=O)C23CC(CNC(=O)[C@H](Cc4cccnc4)N(C)C1=O)(C2)C3` [compound 103, cyclo(F-R-d3Pal-cBuA-Phe2F-Nle-NMe3Pal-amBCP)] (cyclo(FR[d3Pal][Cba][Phe(2-F)][Nle][NMe3Pal][X1])), the figure is 0.00319 µM; as for `CCCC[C@@H]1NC(=O)[C@H](Cc2ccccc2F)NC(=O)[C@H](CC2CCC2)NC(=O)[C@@H](Cc2cccnc2)NC(=O)[C@H](CCCNC(=N)N)NC(=O)[C@H](Cc2ccccc2)NC(=O)C#CCNC(=O)[C@H](Cc2cccnc2)N(C)C1=O` [compound 104, cyclo(F-R-d3Pal-cBuA-Phe2F-Nle-NMe3Pal-amBYA)] (cyclo(FR[d3Pal][Cba][Phe(2-F)][Nle][NMe3Pal][X64])), 0.387 µM.
For the compound `CCCC[C@@H]1NC(=O)[C@H](Cc2ccccc2F)NC(=O)[C@H](CC2CCC2)NC(=O)[C@@H](Cc2cccnc2)NC(=O)[C@H](CCCN2C(=N)NC(C)(C)C2=O)NC(=O)[C@H](Cc2ccccc2)NC(=O)C23CC(CNC(=O)[C@H](Cc4cccnc4)N(C)C1=O)(C2)C3` [compound 105, cyclo(F-baceNva-d3Pal-cBuA-Phe2F-Nle-NMe3Pal-amBCP)] (cyclo(F[X72][d3Pal][Cba][Phe(2-F)][Nle][NMe3Pal][X1])), the EC50 came out at 0.00756 µM.
Then `CCCC[C@@H]1NC(=O)[C@H](Cc2ccccc2F)NC(=O)[C@H](CC2CCC2)NC(=O)[C@@H](Cc2cccnc2)NC(=O)[C@H](CCCNC(=N)N)NC(=O)[C@H](Cc2ccccc2)NC(=O)C23COC(CNC(=O)[C@H](Cc4cccnc4)N(C)C1=O)(C2)C3` [compound 106, cyclo(F-R-d3Pal-cBuA-Phe2F-Nle-NMe3Pal-amOBCH)] (cyclo(FR[d3Pal][Cba][Phe(2-F)][Nle][NMe3Pal][X61])), with 6.82 µM; and `CCCC[C@@H]1NC(=O)[C@H](Cc2ccccc2F)NC(=O)[C@H](CC2CCC2)NC(=O)[C@@H](Cc2cccnc2)NC(=O)[C@H](CCCn2ccnc2[N+](=O)[O-])NC(=O)[C@H](Cc2ccccc2)NC(=O)C23CC(CNC(=O)[C@H](Cc4cccnc4)N(C)C1=O)(C2)C3` [compound 107, cyclo(F-NO2IMNva-d3Pal-cBuA-Phe2F-Nle-NMe3Pal-amBCP)] (cyclo(F[X65][d3Pal][Cba][Phe(2-F)][Nle][NMe3Pal][X1])), with 0.242 µM.

Source of the values: patent US20260001914A1, “MACROCYCLIC PEPTIDES TARGETING KRAS” (Merck Sharp & Dohme LLC, priority 2022, published 2026).
